Measured values: patent US8034940B2, “Modulators of glucocorticoid receptor, AP-1, and/or NF-κB activity and use thereof” (Bristol-Myers Squibb Company, priority 2006, dated 2011)

How the values were obtained:
[1] = target: T1, human full-length glucocorticoid receptor (Homo sapiens, UniProt P04150); experiment: Glucocorticoid Receptor Binding Assay (I), fluorescence polarization, Fluormone GS Red; parameters: purified human recombinant full-length glucocorticoid receptor; purchased Invitrogen Part #2893
T1 sequence (P04150 1-777): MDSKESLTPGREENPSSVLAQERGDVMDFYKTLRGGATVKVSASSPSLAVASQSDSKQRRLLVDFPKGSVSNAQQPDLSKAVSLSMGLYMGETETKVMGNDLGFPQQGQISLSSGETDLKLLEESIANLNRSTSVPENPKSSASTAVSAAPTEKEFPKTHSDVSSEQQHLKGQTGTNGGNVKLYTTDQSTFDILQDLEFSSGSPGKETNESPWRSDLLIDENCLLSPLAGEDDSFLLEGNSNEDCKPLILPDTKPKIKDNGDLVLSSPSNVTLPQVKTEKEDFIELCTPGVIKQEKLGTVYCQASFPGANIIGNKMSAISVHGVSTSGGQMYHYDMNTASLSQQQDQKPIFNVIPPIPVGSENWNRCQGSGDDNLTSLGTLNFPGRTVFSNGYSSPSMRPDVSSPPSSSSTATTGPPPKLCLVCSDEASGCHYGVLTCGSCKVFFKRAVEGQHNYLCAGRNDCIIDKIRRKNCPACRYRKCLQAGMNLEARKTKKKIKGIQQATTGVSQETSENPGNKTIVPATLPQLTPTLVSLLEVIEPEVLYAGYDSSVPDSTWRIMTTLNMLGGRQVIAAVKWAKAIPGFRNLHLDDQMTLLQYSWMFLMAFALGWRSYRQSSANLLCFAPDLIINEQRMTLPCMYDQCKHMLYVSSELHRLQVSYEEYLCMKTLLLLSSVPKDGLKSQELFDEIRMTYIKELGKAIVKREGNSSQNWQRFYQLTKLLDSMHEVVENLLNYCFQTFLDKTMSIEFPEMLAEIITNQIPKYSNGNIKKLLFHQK
How it was run: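 Fluorescence polarization competition: 2 nM purified full-length recombinant receptor with 1 nM Fluormone GS Red tracer, ±test compound over 8.5E-05 to 5 μM. Incubation was 2 h at room temperature in the dark before reading FP.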

[2] = target: T1, human full-length glucocorticoid receptor; experiment: Glucocorticoid Receptor Binding Assay (II), fluorescence polarization, FITC-dexamethasone; parameters: recombinantly expressed human full-length glucocorticoid receptor; purchased PanVera Co., Madison P2816
Protocol: Glucocorticoid Receptor Binding Assay (II)^b
In order to measure the binding of compounds on the glucocorticoid receptor a commercially available kit was used (Glucocorticoid receptor competitor assay kit, PanVera Co., Madison, W1, P2816). Briefly, a cell lysate containing recombinantly expressed human full-length glucocorticoid receptor was mixed with a fluorescently labeled glucocorticoid (4 nM FITC-dexamethasone) plus or minus test molecule. After one hour at room temperature, the fluorescence polarization (FP) of the samples were measured. […] Test molecules were analyzed in the concentration range from 0.1 nM to 40 μM.

[3] = GR Binding Assay (I), read-out: GR (Ki, nM) (GR Binding Assay (I))
[4] = GR Binding Assay (II), read-out: GR (Ki, nM) (GR Binding Assay (II))

Ki [2, 4]	SMILES	further results
13.1 nM	CC(C)(C(=O)Nc1nncs1)[C@H]1c2ccccc2Oc2nc(-c3ccc(C#N)cc3)ccc21 [Example 203]	Ki [1, 3]: 4.61 nM
84.6 nM	CC(C)(C(=O)Nc1nncs1)[C@H]1c2ccccc2Oc2nc(-c3ccc4ccccc4c3)ccc21 [Example 186]	Ki [1, 3]: 386 nM
34.4 nM	CC(C)(C(=O)Nc1nncs1)[C@H]1c2ccccc2Oc2nc(-c3cccnc3)ccc21 [Example 187]	Ki [1, 3]: 33.1 nM
517 nM	Cc1nnc(NC(=O)C(C)(C)C2c3ccccc3Oc3ncccc32)s1 (stereo not shown) [Example 71]	–
445 nM	CCOC(=O)c1csc(NC(=O)C(C)(C)C2c3ccccc3CCc3ccccc32)n1 [Example 23]	–
296 nM	CCOC(=O)c1csc(NC(=O)C(C)(C)C2c3ccccc3Oc3cc(OCOCCOC)ccc32)n1 (stereo not shown) [Example 97]	–
1160 nM	COC[C@H]1CCCN1c1ccc2c(n1)Oc1ccccc1[C@@H]2C(C)(C)C(=O)Nc1nncs1 [Example 145]	–
2550 nM	Cc1nc(NC(=O)C(C)(C)[C@@H]2c3ccccc3Oc3cc(O)ccc32)sc1C [Example 91]	–
18.3 nM	COC(=O)c1csc(NC(=O)C(C)(C)C2c3ccccc3Oc3cc(O)ccc32)n1 (stereo not shown) [Example 99]	–
60.9 nM	CCOC(=O)c1csc(NC(=O)C(C)(C)C2c3ccccc3Oc3cc(OC)ccc32)n1 (stereo not shown) [Example 48]	–
1200 nM	Cc1cnc(NC(=O)C(C)(C)[C@@H]2c3ccccc3Oc3cc(O)ccc32)s1 [Example 92]	–
460 nM	CC(C)(C(=O)Nc1nncs1)[C@H]1c2ccccc2Oc2nc(-c3cccc4ccccc34)ccc21 [Example 177]	Ki [1, 3]: > 1150 nM
243 nM	CC(C)(C(=O)Nc1nccs1)C1c2ccccc2Oc2c(O)cccc21 (stereo not shown) [Example 81]	–
31.8 nM	CCCCNc1ccc2c(c1)Oc1ncccc1C2C(C)(C)C(=O)Nc1nccs1 (stereo not shown) [Example 155]	–
–	Cc1cccc(-c2ccc3c(n2)Oc2ccccc2[C@@H]3C(C)(C)C(=O)Nc2nncs2)c1 [Example 179]	Ki [1]: 64.6 nM; Ki [2]: 37.9 nM
37 nM	CC(C)(C(=O)Nc1nncs1)[C@H]1c2ccccc2Oc2nc(N3CCCCCC3)ccc21 [Example 146]	–
256 nM	COc1ccc(-c2ccc3c(n2)Oc2ccccc2[C@H]3C(C)(C)C(=O)Nc2nncs2)cc1 [Example 162]	–
58 nM	COc1ccc2c(c1)Oc1ccccc1[C@@H]2C(C)(C)C(=O)Nc1nncs1 [Example 62]	–
537 nM	CC(C)(C(=O)Nc1nncs1)[C@@H]1c2ccccc2Oc2nc(N3CCC4(CC3)OCCO4)ccc21 [Example 135]	–

Ki [2, 4]	SMILES	further results
11.1 nM	CC(C)(C(=O)Nc1nccs1)[C@H]1c2ccccc2Oc2nc(N3CCCCC3)ccc21 [Example 148]	–
665 nM	CC(C)(C(=O)Nc1ncns1)C1c2ccccc2Oc2ncccc21 (stereo not shown) [Example 66]	–
762 nM	Cc1csc(NC(=O)C(C)(C)C2c3ccccc3Oc3ncccc32)n1 (stereo not shown) [Example 70]	–
820 nM	CCOC(=O)c1csc(NC(=O)C(C)(C)C2c3ccccc3Oc3ncccc32)n1 (stereo not shown) [Example 68]	–
141 nM	COc1ccc(CNc2ccc3c(n2)Oc2ccccc2[C@H]3C(C)(C)C(=O)Nc2nncs2)cc1 (racemic) [Example 136]	–
13.1 nM	COC(=O)c1ccc(-c2ccc3c(n2)Oc2ccccc2[C@@H]3C(C)(C)C(=O)Nc2nncs2)cc1 [Example 192]	Ki [1, 3]: 12.3 nM
744 nM	C[C@@H](Nc1ccc2c(n1)Oc1ccccc1[C@@H]2C(C)(C)C(=O)Nc1nncs1)c1ccccc1 [Example 143]	–
11 nM	CN(C)c1ccc2c(n1)Oc1ccccc1[C@@H]2C(C)(C)C(=O)Nc1nncs1 [Example 149]	–
1270 nM	Cc1csc(NC(=O)C(C)(C)[C@@H]2c3ccccc3Oc3cc(O)ccc32)n1 [Example 93]	–
154 nM	CC(C)(C(=O)Nc1nccs1)C1c2ccccc2Sc2ccccc21 [Example 9]	–
29 nM	CC(C)(C(=O)Nc1nccs1)C1c2ccccc2Oc2nc(Cl)ccc21 (stereo not shown) [Example 75]	–
22.1 nM	CCOC(=O)c1csc(NC(=O)C(C)(C)C2c3ccccc3Oc3cc(O)ccc32)n1 (stereo not shown) [Example 96]	–
444 nM	CC(C)(C(=O)Nc1nncs1)[C@@H]1c2ccccc2Oc2nc(N3CCCCC3)ccc21 [Example 134]	–
10.2 nM	CC(C)(C(=O)Nc1nncs1)[C@H]1c2ccccc2Oc2nc(-c3ccccc3)ccc21 [Example 171]	Ki [1]: 7.15 nM
4.7 nM	CC(C)(C(=O)Nc1nncs1)[C@H]1c2ccccc2Oc2nc(-c3ccc(Cl)cc3)ccc21 [Example 178]	Ki [1, 3]: 10.6 nM
1640 nM	CC(C)(C(=O)Nc1nccs1)C1c2ccccc2-c2ccc(O)cc21 (stereo not shown) [Example 22]	–
32.9 nM	Cc1nc(NC(=O)C(C)(C)[C@H]2c3ccccc3Oc3cc(O)ccc32)sc1C [Example 86]	–
76.4 nM	CC(C)(C(=O)Nc1nncs1)C1c2ccccc2Oc2nc(Cl)ccc21 (stereo not shown) [Example 76]	–
11.4 nM	CC(C)(C(=O)Nc1nncs1)[C@H]1c2ccccc2Oc2nc(N3CCCCC3)ccc21 [Example 138]	–
